Experimental data from patent US11241437B2, “Heterocyclic compounds, preparation methods and uses thereof” (InventisBio Co., Ltd., priority 2019, dated 2022).
≈ marks a conversion by molar mass, not a printed value. Where two headings read alike, the source gives them in different places.

What was measured:
Type in all cases: physicochemical
[1] = Mechanical stability (grinding) of Form IV of Compound 1; details: ground for 2 and 5 min
Experimental: Form IV was also tested for mechanical stability. In this case, appropriate amount of Form IV was ground for 2 and 5 min, and then tested by XRPD to check the crystal form.

[2] = Dynamic moisture sorption analysis (DVS) of Form IV of Compound 1
Experimental: Method 1. Used for studies with solid state of Compound 1. Moisture sorption/desorption data was collected on a DVS Intrinsic (SMS, UK). The sample was placed into a tared sample chamber and automatically weighed. The sample was dried at 40° C. until the dm/dt was less than 0.002% and cooled to 25° C. Set the instrument parameters as below.

[3] = Stability studies of Form IV of Compound 1 (HPLC and XRPD)
Experimental: Method 1. a representative HPLC method is shown below, which can be used, for example, to analyze the purity, solubility, and stability of Compound 1 herein.
Stability Studies: Appropriate amounts of Form IV were put at 40° C./75% RH, 60° C. and 25±2° C./92.5% RH conditions for 14 days. Then the sample was tested by HPLC and XRPD to determine the chemical and physical stability.

[4] = Polymorph characterization summary of Compound 1 forms (form stability)
Text: In the polymorph screening, five XRPD Patterns (FIG. 11) were generated, and four forms were identified including 2 anhydrates and 2 hydrates.

[5] = Interconversion studies of solid forms of Compound 1 (slurry); details: water or MeOH/water (1/4) at RT and 50° C. for 3 days
Experimental: Interconversion Studies: Equal amounts (˜7 mg) of Form I, II and III were mixed together and then suspended in 0.5 mL of different solvents at room temperature or 50° C., respectively. Residual solids were collected by filtration and characterized at appropriate time. Additionally, Form IV (˜12 mg) was slurried in 0.5 ml, water or MeOH/water (1/4) at RT or 50° C. for 3 days. Residual solids were collected by filtration and analyzed by XRPD.

[6] = Solubility of Compound 1 solid forms in bio-relevant media and water
Experimental: Solubility Studies: Solubility of Form IV was tested in three bio-relevant media (Simulated Gastric Fluid (SGF), Fasted State Simulated Intestinal Fluid (FaSSIF), and Fed State Simulated Intestinal Fluid (FeSSIF)) and water. […] Form IV (˜10 mg) was weighed into 2 mL of four media to make suspensions respectively, and about 10 mg of the amorphous starting material was also added into 2 mL of FaSSIF. Then all suspensions were shaken at 37° C. with 200 rpm for up to 24 hours. At 0.5, 2 and 24 hours, about 0.7 mL of each suspension was filtered. The filtrate was analyzed by HPLC and pH meter, and the residual solids were also checked by XRPD at 24 hours.

C=CC(=O)N1C[C@H](C)N(c2nc(=O)n(-c3c(C4CC4)ncnc3C3CC3)c3nc(-c4c(N)cccc4F)c(Cl)cc23)C[C@H]1C [Form IV]
Crystal form after grinding (XRPD) [1]: no new form was generated
Crystal form after DVS testing [2]: remained unchanged
Hygroscopicity (DVS) ([2]; 25° C.): slightly hygroscopic
Water uptake (DVS) ([2]; at 80% RH, 25° C.): about 1.37%
Purity ([3]; 40° C./75% RH, 7 D): 98.21 Area %
Purity ([3]; 40° C./75% RH, 14 D): 98.12 Area %
Physical stability, XRPD ([3]; 40° C./75% RH, 60° C. and 25° C./92.5% RH, 14 days): XRPD remained unchanged
Chemical stability, impurities ([3]; 60° C. for 2 weeks): a new impurity was detected
Purity ([3]; 60° C., 7 D): 97.98 Area %
Purity ([3]; 60° C., 14 D): 97.88 Area %
Purity-initial ([3]; initial, before storage): 98.30 Area %
Stability of the solid form [4]: Stable form, slightly
Form after slurry in aqueous systems (XRPD) [5]: remained unchanged
Solubility ([6]; FaSSIF, 37° C., 0.5 h): 17 µg/mL (≈ 27.6 µM)
Solubility ([6]; FaSSIF, 37° C., 2 h): 16 µg/mL (≈ 26 µM)
Solubility ([6]; FaSSIF, 37° C., 24 h): 21 µg/mL (≈ 34.1 µM)
XRPD-24 h of residual solids ([6]; FaSSIF, 37° C., 24 h): unchanged
Solubility in FaSSIF ([6]; FaSSIF, time point not stated): 20 µg/mL (≈ 32.5 µM)
XRPD-24 h of residual solids ([6]; FeSSIF, 37° C., 24 h): unchanged
solubility at 0.5 h ([6]; FeSSIF, 37 °C, thermodynamic from solid, 0.5 h): 37 µg/mL (≈ 60.2 µM)
solubility at 2 h ([6]; FeSSIF, 37 °C, thermodynamic from solid, 2 h): 37 µg/mL (≈ 60.2 µM)
solubility at 24 h ([6]; FeSSIF, 37 °C, thermodynamic from solid, 24 h): 62 µg/mL (≈ 101 µM)
XRPD-24 h of residual solids ([6]; SGF, 37° C., 24 h): unchanged
solubility at 0.5 h ([6]; SGF, 37 °C, simulated gastric fluid, thermodynamic from solid, 0.5 h): 36 µg/mL (≈ 58.5 µM)
solubility at 2 h ([6]; SGF, 37 °C, simulated gastric fluid, thermodynamic from solid, 2 h): 34 µg/mL (≈ 55.3 µM)
solubility at 24 h ([6]; SGF, 37 °C, simulated gastric fluid, thermodynamic from solid, 24 h): 36 µg/mL (≈ 58.5 µM)
Solubility ([6]; SGF, FeSSIF, water, 37 °C, thermodynamic from solid, media other than FaSSIF (SGF, FeSSIF, water), read-out: Solubility in other media): < 70 µg/mL
XRPD-24 h of residual solids ([6]; Water, 37° C., 24 h): unchanged
solubility at 0.5 h ([6]; water, 37 °C, thermodynamic from solid, 0.5 h): 14 µg/mL (≈ 22.8 µM)
solubility at 2 h ([6]; water, 37 °C, thermodynamic from solid, 2 h): 11 µg/mL (≈ 17.9 µM)
solubility at 24 h ([6]; water, 37 °C, thermodynamic from solid, 24 h): 9 µg/mL (≈ 14.6 µM)
